From ChEMBL document CHEMBL1201862, “PubChem BioAssay data set” (2004)
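Test compounds were applied to cells in 96-well plates for 48 hours at 5 doses. The concentration for 50% growth inhibition is given as GI50.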 Activity calls are given as the source filed them. Cut-off read from the data, not from the text of the source: active = GI50 up to about 1.1 µM and inactive = higher.

Legend:
Assay in all cases: NCI tumour cell line growth inhibition, 48 h
SK-MEL-28 = test system: SK-MEL-28
SW-620 = test system: SW-620
SNB-19 = test system: SNB-19
ACHN = test system: ACHN
NCI-H522 = test system: NCI-H522
SN12C = test system: SN12C
UACC-62 = test system: UACC-62
SK-MEL-5 = test system: SK-MEL-5
UACC-257 = test system: UACC-257
MCF7 = test system: MCF7
PC-3 = test system: PC-3
UO-31 = test system: UO-31
TK-10 = test system: TK-10
NCI/ADR-RES = test system: NCI/ADR-RES
MDA-MB-231 = test system: MDA-MB-231
OVCAR-3 = test system: OVCAR-3
OVCAR-8 = test system: OVCAR-8
M14 = test system: M14
SF-295 = test system: SF-295
T47D = test system: T47D

CC(C)(C)OC(=O)CN1C(=O)CC1CC(=O)c1ccccc1 (configuration not stated)
GI50 (SK-MEL-28): 19.5 µM (inactive)
GI50 (SW-620): 3.58 µM (inactive)
GI50 (SNB-19): 19.8 µM (inactive)
GI50 (ACHN): 21.2 µM (inactive)
GI50 (NCI-H522): 15.5 µM (inactive)
GI50 (SN12C): 23.2 µM (inactive)
GI50 (UACC-62): 19.3 µM (inactive)
GI50 (SK-MEL-5): 18.2 µM (inactive)
GI50 (UACC-257): 18.2 µM (inactive)
GI50 (MCF7): 12.4 µM (inactive)
GI50 (PC-3): 17.2 µM (inactive)
GI50 (UO-31): 17.2 µM (inactive)
GI50 (TK-10): 30.2 µM (inactive)
GI50 (NCI/ADR-RES): 35.1 µM (inactive)
GI50 (MDA-MB-231): 17.2 µM (inactive)
GI50 (OVCAR-3): 18.4 µM (inactive)
GI50 (OVCAR-8): 17.3 µM (inactive)
GI50 (M14): 16.3 µM (inactive)
GI50 (SF-295): 26.9 µM (inactive)

COc1ccc(NC(=O)/C(CC2=Nc3ccc([N+](=O)[O-])cc3NC2O)=N\NC(=O)C[N+](C)(C)C)c(OC)c1 (configuration not stated)
GI50 (SK-MEL-28): 97.9 µM (inactive)
GI50 (SW-620): 94.8 µM (inactive)
GI50 (SNB-19): > 100 µM (inactive)
GI50 (ACHN): 67.5 µM (inactive)
GI50 (NCI-H522): 18 µM (inactive)
GI50 (SN12C): 61 µM (inactive)
GI50 (UACC-62): > 100 µM (inactive)
GI50 (SK-MEL-5): 22.2 µM (inactive)
GI50 (UACC-257): > 100 µM (inactive)
GI50 (MCF7): > 100 µM (inactive)
GI50 (PC-3): > 100 µM (inactive)
GI50 (UO-31): 34.3 µM (inactive)
GI50 (TK-10): > 100 µM (inactive)
GI50 (NCI/ADR-RES): 40.6 µM (inactive)
GI50 (MDA-MB-231): 12.9 µM (inactive)
GI50 (OVCAR-3): > 100 µM (inactive)
GI50 (OVCAR-8): 30.1 µM (inactive)
GI50 (M14): 56.1 µM (inactive)
GI50 (SF-295): > 100 µM (inactive)

Cc1cn([C@H]2C[C@@H]3[C@@H](COC(CCl)N3O)O2)c(=O)[nH]c1=O (some centres not stated)
GI50 (SK-MEL-28): > 100 µM (inactive)
GI50 (SW-620): > 100 µM (inactive)
GI50 (SNB-19): > 100 µM (inactive)
GI50 (T47D): > 100 µM (inactive)
GI50 (NCI-H522): > 100 µM (inactive)
GI50 (SN12C): > 100 µM (inactive)
GI50 (UACC-62): > 100 µM (inactive)
GI50 (SK-MEL-5): > 100 µM (inactive)
GI50 (UACC-257): > 100 µM (inactive)
GI50 (MCF7): > 100 µM (inactive)
GI50 (PC-3): > 100 µM (inactive)
GI50 (UO-31): > 100 µM (inactive)
GI50 (TK-10): > 100 µM (inactive)
GI50 (NCI/ADR-RES): > 100 µM (inactive)
GI50 (OVCAR-3): > 100 µM (inactive)
GI50 (OVCAR-8): > 100 µM (inactive)
GI50 (M14): > 100 µM (inactive)
GI50 (SF-295): > 100 µM (inactive)

Cc1c2cnccc2c(C)c2c1c1ccccc1n2CCCCCCCl
GI50 (SK-MEL-28): > 48.4 µM (inactive)
GI50 (SW-620): 30 µM (inactive)
GI50 (SNB-19): 40.4 µM (inactive)
GI50 (NCI-H522): > 50 µM (inactive)
GI50 (SN12C): > 50 µM (inactive)
GI50 (UACC-62): > 50 µM (inactive)
GI50 (SK-MEL-5): > 50 µM (inactive)
GI50 (UACC-257): > 33.1 µM (inactive)
GI50 (MCF7): > 50 µM (inactive)
GI50 (UO-31): > 47.5 µM (inactive)
GI50 (NCI/ADR-RES): > 46.3 µM (inactive)
GI50 (OVCAR-3): 49.7 µM (inactive)
GI50 (OVCAR-8): 26 µM (inactive)
GI50 (SF-295): 48.9 µM (inactive)

COc1cc2c(c(OC)c1OC)-c1ccc(SC)cc1C(O)CC2 (configuration not stated)
GI50 (SK-MEL-28): 55.6 µM (inactive)
GI50 (SW-620): < 0.01 µM (active)
GI50 (SNB-19): < 0.01 µM (active)
GI50 (T47D): > 100 µM (inactive)
GI50 (ACHN): < 0.01 µM (active)
GI50 (NCI-H522): < 0.01 µM (active)
GI50 (SN12C): 0.427 µM (active)
GI50 (UACC-62): < 0.01 µM (active)
GI50 (SK-MEL-5): < 0.01 µM (active)
GI50 (MCF7): < 0.01 µM (active)
GI50 (PC-3): < 0.01 µM (active)
GI50 (TK-10): 41 µM (inactive)
GI50 (MDA-MB-231): 0.394 µM (active)
GI50 (OVCAR-3): < 0.01 µM (active)
GI50 (M14): < 0.01 µM (active)
GI50 (SF-295): < 0.01 µM (active)

COC(=O)[C@H](CCSC)NC(=O)N[C@H](C)c1ccccc1
GI50 (SK-MEL-28): > 100 µM (inactive)
GI50 (SW-620): > 100 µM (inactive)
GI50 (SNB-19): > 100 µM (inactive)
GI50 (ACHN): > 100 µM (inactive)
GI50 (NCI-H522): 26.1 µM (inactive)
GI50 (SN12C): > 100 µM (inactive)
GI50 (UACC-62): > 100 µM (inactive)
GI50 (SK-MEL-5): > 100 µM (inactive)
GI50 (UACC-257): 86.7 µM (inactive)
GI50 (MCF7): > 100 µM (inactive)
GI50 (PC-3): > 100 µM (inactive)
GI50 (UO-31): > 100 µM (inactive)
GI50 (TK-10): > 100 µM (inactive)
GI50 (NCI/ADR-RES): 60.7 µM (inactive)
GI50 (MDA-MB-231): > 100 µM (inactive)
GI50 (OVCAR-3): > 100 µM (inactive)
GI50 (OVCAR-8): > 100 µM (inactive)
GI50 (M14): > 100 µM (inactive)
GI50 (SF-295): > 100 µM (inactive)

O=C1N/N=C\c2ccc(cc2)OCc2cccc(n2)COc2ccc(cc2)/C=N\NC1=O
GI50 (SK-MEL-28): > 25 µM (inactive)
GI50 (SW-620): > 25 µM (inactive)
GI50 (SNB-19): > 25 µM (inactive)
GI50 (ACHN): > 25 µM (inactive)
GI50 (NCI-H522): > 25 µM (inactive)
GI50 (SN12C): > 25 µM (inactive)
GI50 (UACC-62): > 25 µM (inactive)
GI50 (UACC-257): > 25 µM (inactive)
GI50 (MCF7): > 25 µM (inactive)
GI50 (PC-3): > 25 µM (inactive)
GI50 (UO-31): > 25 µM (inactive)
GI50 (TK-10): > 25 µM (inactive)
GI50 (NCI/ADR-RES): > 25 µM (inactive)
GI50 (MDA-MB-231): > 25 µM (inactive)
GI50 (OVCAR-3): > 25 µM (inactive)
GI50 (OVCAR-8): > 25 µM (inactive)
GI50 (M14): > 25 µM (inactive)
GI50 (SF-295): > 25 µM (inactive)

O=C1Nc2ccc(Br)cc2/C1=C/C(=O)c1ccccc1
GI50 (SK-MEL-28): 14.8 µM (inactive)
GI50 (SW-620): 2.25 µM (inactive)
GI50 (SNB-19): 19.4 µM (inactive)
GI50 (T47D): 14.7 µM (inactive)
GI50 (ACHN): 1.87 µM (inactive)
GI50 (NCI-H522): 2.22 µM (inactive)
GI50 (SN12C): 4.2 µM (inactive)
GI50 (UACC-62): 16 µM (inactive)
GI50 (SK-MEL-5): 16.7 µM (inactive)
GI50 (UACC-257): 15.1 µM (inactive)
GI50 (MCF7): 4.18 µM (inactive)
GI50 (PC-3): 9.38 µM (inactive)
GI50 (UO-31): 2.49 µM (inactive)
GI50 (TK-10): 1.82 µM (inactive)
GI50 (MDA-MB-231): 15.5 µM (inactive)
GI50 (OVCAR-3): 6.82 µM (inactive)
GI50 (OVCAR-8): 2.1 µM (inactive)
GI50 (M14): 11.1 µM (inactive)
GI50 (SF-295): 17.8 µM (inactive)
